Data as given in ChEMBL document CHEMBL1201862, “PubChem BioAssay data set” (2004).
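Protocol summary: plate cells (96-well), add compound at 5 concentrations, incubate 48 h, interpolate endpoints linearly. Here, GI50 denotes the concentration required for 50% inhibition of growth.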 Calls of active or inactive are those of the source. No stated cut-off is given here; in the data, active = GI50 up to about 1.1 µM and inactive = higher.

Columns and labels:
Experiment in all cases: inhibition of tumour cell growth, NCI panel, 48 h
U-251 = tested on: U-251
OVCAR-8 = tested on: OVCAR-8
HOP-92 = tested on: HOP-92
MDA-MB-435 = tested on: MDA-MB-435
SNB-19 = tested on: SNB-19
PC-3 = tested on: PC-3
HCT-116 = tested on: HCT-116
UACC-62 = tested on: UACC-62
ACHN = tested on: ACHN
TK-10 = tested on: TK-10
OVCAR-5 = tested on: OVCAR-5
SR = tested on: SR
MCF7 = tested on: MCF7
SK-MEL-5 = tested on: SK-MEL-5
NCI/ADR-RES = tested on: NCI/ADR-RES
SK-MEL-2 = tested on: SK-MEL-2
SK-OV-3 = tested on: SK-OV-3
T47D = tested on: T47D
HT-29 = tested on: HT-29
HCT-15 = tested on: HCT-15

Compound | GI50 (U-251) | GI50 (OVCAR-8) | GI50 (HOP-92) | GI50 (MDA-MB-435) | GI50 (SNB-19) | GI50 (PC-3) | GI50 (HCT-116) | GI50 (UACC-62) | GI50 (ACHN) | GI50 (TK-10) | GI50 (OVCAR-5) | GI50 (SR) | GI50 (MCF7) | GI50 (SK-MEL-5) | GI50 (NCI/ADR-RES) | GI50 (SK-MEL-2) | GI50 (SK-OV-3) | GI50 (T47D) | GI50 (HT-29) | GI50 (HCT-15)
Cc1cc(C)nc(NS(=O)(=O)c2ccc(Nc3c4ccccc4nc4ccc(C(=O)Nc5ccc(S(=O)(=O)N=C(N)N)cc5)cc34)cc2)n1 | 60.7 µM (inactive) | > 100 µM (inactive) | 26 µM (inactive) | 48.4 µM (inactive) | > 100 µM (inactive) | > 100 µM (inactive) | 70.1 µM (inactive) | > 100 µM (inactive) | > 100 µM (inactive) | > 100 µM (inactive) | > 100 µM (inactive) | 44.6 µM (inactive) | 23.2 µM (inactive) | 97.3 µM (inactive) | > 100 µM (inactive) | > 100 µM (inactive) | > 100 µM (inactive) | 38.2 µM (inactive) | 59.4 µM (inactive) | 33.3 µM
CC(=O)c1[nH]c(NCc2ccccc2)c(C(=S)Nc2ccccc2)c1N | 17.3 µM (inactive) | 18.6 µM (inactive) | 14.9 µM (inactive) | 18.2 µM (inactive) | 34.3 µM (inactive) | 39.6 µM (inactive) | 18.4 µM (inactive) | 16.6 µM (inactive) | 29 µM (inactive) | 27.5 µM (inactive) | 24.3 µM (inactive) | 28.7 µM (inactive) | 19.3 µM (inactive) | 17.1 µM (inactive) | 30.6 µM (inactive) | 0.258 µM (active) | > 100 µM (inactive) | 22 µM (inactive) | 31.3 µM (inactive) | 19.1 µM
COc1cccc2c(=O)c3c(n(C)c12)OC(C(C)C)C3 (stereo not given) | > 100 µM (inactive) | > 100 µM (inactive) | > 100 µM (inactive) | > 100 µM (inactive) | 69.7 µM (inactive) | > 100 µM (inactive) | > 100 µM (inactive) | > 100 µM (inactive) | 63 µM (inactive) | > 100 µM (inactive) | > 100 µM (inactive) | 30.8 µM (inactive) | > 100 µM (inactive) | 56.1 µM (inactive) | 55.7 µM (inactive) | > 100 µM (inactive) | > 100 µM (inactive) | 87.3 µM (inactive) | > 100 µM (inactive) | 46.9 µM
O=C1NC(=S)NC(=O)C1=C(O)Nc1ccccc1 | 27.5 µM (inactive) | 27.8 µM (inactive) | 8.34 µM (inactive) | 7.98 µM (inactive) | 25.8 µM (inactive) | 15 µM (inactive) | 29.1 µM (inactive) | 19.5 µM (inactive) | 23.6 µM (inactive) | 53.6 µM (inactive) | 47.2 µM (inactive) | 12.8 µM (inactive) | 19.1 µM (inactive) | 21.5 µM (inactive) | 30.5 µM (inactive) | 35.9 µM (inactive) | 38.9 µM (inactive) | 28.2 µM (inactive) | 47.4 µM (inactive) | 14.2 µM
CCOC(=O)C(C(=O)OCC)=C1NC2(c3ccccc3Nc3ccccc32)C(C#N)S1 (stereo not given) | 12.1 µM (inactive) | 10.9 µM (inactive) | 4.34 µM (inactive) | 7.73 µM (inactive) | 12.6 µM (inactive) | 4.52 µM (inactive) | 9.89 µM (inactive) | 10.3 µM (inactive) | 14.9 µM (inactive) | 13.5 µM (inactive) | 16.7 µM (inactive) | 2.81 µM (inactive) | 3.39 µM (inactive) | 10 µM (inactive) | 10.4 µM (inactive) | 11.6 µM (inactive) | 12.7 µM (inactive) | 4.66 µM (inactive) | 4.21 µM (inactive) | 5.78 µM
COC(=O)[C@@H]1C2OC(C)(C)OC2CN1C(=O)OCc1ccccc1 (stereo not given in full) | > 100 µM (inactive) | > 100 µM (inactive) | > 100 µM (inactive) | > 100 µM (inactive) | > 100 µM (inactive) | > 100 µM (inactive) | > 100 µM (inactive) | > 100 µM (inactive) | > 100 µM (inactive) | > 100 µM (inactive) | > 100 µM (inactive) | > 100 µM (inactive) | > 100 µM (inactive) | > 100 µM (inactive) | > 100 µM (inactive) | > 100 µM (inactive) | > 100 µM (inactive) | > 100 µM (inactive) | > 100 µM (inactive) | > 100 µM
OC1C=C2C3CN(Cc4cc5c(cc43)OCO5)[C@H]2C[C@@H]1O (stereo not given in full) | 4.86 µM (inactive) | 5.04 µM (inactive) | 5.31 µM (inactive) | 3.94 µM (inactive) | 4.62 µM (inactive) | 2.19 µM (inactive) | 3.3 µM (inactive) | 10.6 µM (inactive) | 2.65 µM (inactive) | 4.13 µM (inactive) | 8.39 µM (inactive) | 2.94 µM (inactive) | 2.96 µM (inactive) | 3.32 µM (inactive) | 15.7 µM (inactive) | 3.2 µM (inactive) | 3.82 µM (inactive) | 1.16 µM (inactive) | 3.69 µM (inactive) | 4.33 µM
COC(=O)CCCc1nc2ccccc2nc1/N=N/c1ccccc1 | 53.6 µM (inactive) | 22 µM (inactive) | > 100 µM (inactive) | 58.7 µM (inactive) | 56 µM (inactive) | 39.5 µM (inactive) | 30.3 µM (inactive) | > 100 µM (inactive) | 74 µM (inactive) | > 100 µM (inactive) | > 100 µM (inactive) | 20.8 µM (inactive) | 30.8 µM (inactive) | 61.1 µM (inactive) | 18.7 µM (inactive) | > 100 µM (inactive) | > 100 µM (inactive) | 45.7 µM (inactive) | 32.1 µM (inactive) | 23.9 µM
Cc1cc2c(cc1C)C(=O)/C(=N/Nc1ccc(F)cc1)CCO2 | > 100 µM (inactive) | > 100 µM (inactive) | > 100 µM (inactive) | > 100 µM (inactive) | > 100 µM (inactive) | > 100 µM (inactive) | > 100 µM (inactive) | > 100 µM (inactive) | > 100 µM (inactive) | > 100 µM (inactive) | > 100 µM (inactive) | > 100 µM (inactive) | > 100 µM (inactive) | 95.3 µM (inactive) | > 100 µM (inactive) | 20.4 µM (inactive) | > 100 µM (inactive) | 5.04 µM (inactive) | 24.6 µM (inactive) | > 100 µM
Nc1ccccc1-c1noc(=O)[nH]1 | > 100 µM (inactive) | > 100 µM (inactive) | > 100 µM (inactive) | > 100 µM (inactive) | > 100 µM (inactive) | > 100 µM (inactive) | > 100 µM (inactive) | > 100 µM (inactive) | > 100 µM (inactive) | > 100 µM (inactive) | > 100 µM (inactive) | > 100 µM (inactive) | > 100 µM (inactive) | > 100 µM (inactive) | > 100 µM (inactive) | > 100 µM (inactive) | > 100 µM (inactive) | > 100 µM (inactive) | > 100 µM (inactive) | > 100 µM
COc1ccc(/C=C/C(=O)c2ccccc2)cc1OC | 9.59 µM (inactive) | 16.3 µM (inactive) | 18.5 µM (inactive) | 4.59 µM (inactive) | 11.2 µM (inactive) | 11.3 µM (inactive) | 6.38 µM (inactive) | 13.4 µM (inactive) | 15.5 µM (inactive) | 17.2 µM (inactive) | 16.9 µM (inactive) | 3.15 µM (inactive) | 2.52 µM (inactive) | 16.8 µM (inactive) | 21.2 µM (inactive) | 17.3 µM (inactive) | 14.2 µM (inactive) | 10.8 µM (inactive) | 5.3 µM (inactive) | 7.03 µM
C=C1CC(COc2cc(=O)oc3ccccc23)(c2ccccc2)OC1=O (stereo not given) | 9.4 µM (inactive) | 1.86 µM (inactive) | 1.01 µM (active) | 3.7 µM (inactive) | 16.4 µM (inactive) | 1.95 µM (inactive) | 1.46 µM (inactive) | 1.41 µM (inactive) | 2.5 µM (inactive) | 1.59 µM (inactive) | 8.07 µM (inactive) | 6.32 µM (inactive) | 0.413 µM (active) | 1.71 µM (inactive) | 2.96 µM (inactive) | 1.08 µM (active) | 3.27 µM (inactive) | 2.25 µM (inactive) | 1.38 µM (inactive) | 1.82 µM
C=CC(COC(=O)C(C)(C)OC(C)=O)c1ccc(OC(=O)C(C)C)c(OC)c1 (stereo not given) | 3.59 µM (inactive) | 9.82 µM (inactive) | 2.73 µM (inactive) | 8.91 µM (inactive) | 11.1 µM (inactive) | 9.68 µM (inactive) | 4.05 µM (inactive) | 11.8 µM (inactive) | 2.88 µM (inactive) | 8.57 µM (inactive) | 14.6 µM (inactive) | 2.56 µM (inactive) | 2.51 µM (inactive) | 13.5 µM (inactive) | 11 µM (inactive) | 9.62 µM (inactive) | 16.5 µM (inactive) | 3.84 µM (inactive) | 3.27 µM (inactive) | 2.03 µM
CC12CCCCC1=C(F)C(F)(F)S2 (stereo not given) | 98.6 µM (inactive) | 35.8 µM (inactive) | 23.6 µM (inactive) | 43.3 µM (inactive) | > 100 µM (inactive) | 40.7 µM (inactive) | 22.1 µM (inactive) | 42.4 µM (inactive) | 22.1 µM (inactive) | 39.2 µM (inactive) | 62.5 µM (inactive) | 15 µM (inactive) | 34.4 µM (inactive) | 46.3 µM (inactive) | 40.1 µM (inactive) | 75.2 µM (inactive) | > 100 µM (inactive) | 26.7 µM (inactive) | 20.8 µM (inactive) | 32.7 µM
